Reference: patent publication US20180110774A1, “COMPOSITIONS AND METHODS FOR TREATMENT OF PULMONARY HYPERTENSION” (STC.UNM, priority 2015, published 2018)

How the values were obtained:
TH17 cell development [1] = details: Solt et al., 2011; cited from earlier work
TH17 cell development [2] = details: Solt et al., 2011; cited from earlier work; remark: listed apart in the source
established PH due to CH = assay: Established CH-induced pulmonary hypertension (reversal: 3 weeks CH, then SR1001 for 2 more weeks in CH); type: in vivo; details: mice
Protocol: FIGS. 7A-D—TH17 cell inhibition attenuates increases in RVSP in established PH. Wild-type mice were exposed to CH for 21 days followed by administration of SR1001 (25 mg/kg/day s.c.) for an additional 14 days in CH. (A) RVSP. (B) Fulton's index. (C) Pulmonary arterial remodeling. (D) % Hematocrit. Values are means±SEM; *p<0.05 vs. vehicle, n=5-6/group, analyzed by unpaired T-test.
(§1) Methods: Age- and sex-matched mice C57BL/6J wild-type (WT), RAG1 KO mice (lack mature T and B cells), IL-17-GFP mice (express EGFP in cells expressing IL-17A), were used in these studies (The Jackson Laboratory). Mice were exposed to chronic hypoxia (CH) for 2 to 21 days in a hypobaric chamber maintained at a barometric pressure of 380 mmHg. Normoxic animals were housed in identical cages in the same facility under normobaric conditions (PB=630 mmHg in Albuquerque, N. Mex.).
To follow up on the immunologic timing of events, studies were undertaken to understand whether PH due to CH might be reversed once already established by inhibiting TH17 cell development. Therefore, after 3 weeks of CH, osmotic pumps containing SR1001 (0.625 mg/day for 25 g mouse). were implanted sub-cutaneously and animals were immediately returned to CH for an additional 2 weeks (5 weeks of CH total).

RORγt = target: T1, RORγt (Homo sapiens, UniProt P51449); details: selective inverse agonist; Solt et al., 2011, 2012; cited from earlier work
T1 sequence (P51449 1-497 isoform P51449-2): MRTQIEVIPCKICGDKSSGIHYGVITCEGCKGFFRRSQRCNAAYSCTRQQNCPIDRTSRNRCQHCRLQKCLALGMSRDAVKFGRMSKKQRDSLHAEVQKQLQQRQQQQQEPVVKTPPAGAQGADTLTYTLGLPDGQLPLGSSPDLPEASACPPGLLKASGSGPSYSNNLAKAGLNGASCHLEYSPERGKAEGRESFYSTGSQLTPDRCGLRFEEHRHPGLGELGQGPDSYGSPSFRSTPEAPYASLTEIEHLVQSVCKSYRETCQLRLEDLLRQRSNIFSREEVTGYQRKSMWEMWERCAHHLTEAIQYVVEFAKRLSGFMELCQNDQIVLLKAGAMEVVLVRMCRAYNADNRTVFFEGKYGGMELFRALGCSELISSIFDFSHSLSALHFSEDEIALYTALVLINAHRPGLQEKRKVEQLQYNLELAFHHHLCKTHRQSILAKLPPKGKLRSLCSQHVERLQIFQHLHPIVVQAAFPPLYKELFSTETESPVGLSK

RORα = target: T2, RORα (Homo sapiens, UniProt P35398); details: selective inverse agonist; Solt et al., 2011, 2012; cited from earlier work
T2 sequence (P35398 1-523): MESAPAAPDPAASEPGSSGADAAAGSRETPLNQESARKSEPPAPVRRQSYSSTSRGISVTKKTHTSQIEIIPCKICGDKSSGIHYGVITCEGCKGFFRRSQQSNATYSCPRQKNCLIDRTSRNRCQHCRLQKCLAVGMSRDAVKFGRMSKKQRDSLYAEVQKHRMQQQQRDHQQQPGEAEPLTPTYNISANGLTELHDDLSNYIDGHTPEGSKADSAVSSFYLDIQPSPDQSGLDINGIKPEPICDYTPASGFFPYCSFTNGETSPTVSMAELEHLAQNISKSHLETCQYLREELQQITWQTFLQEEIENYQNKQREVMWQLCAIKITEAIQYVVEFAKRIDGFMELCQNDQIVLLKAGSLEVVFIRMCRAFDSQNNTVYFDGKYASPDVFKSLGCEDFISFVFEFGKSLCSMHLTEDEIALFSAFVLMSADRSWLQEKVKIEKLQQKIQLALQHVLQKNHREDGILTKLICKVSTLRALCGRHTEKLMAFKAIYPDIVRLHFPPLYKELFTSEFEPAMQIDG

CH-induced PH = assay: Development of chronic hypoxia (CH)-induced pulmonary hypertension, 21 days; type: in vivo; details: mice, CH 21 days; SR1001 0.625 mg/day for 25 g mouse s.c. osmotic pump
Protocol: FIGS. 6A-D—Inhibition of TH17 cell polarization attenuates the development of CH-induced PH. SR1001 prepared in propylene glycol, 0.625 mg/day for 25 g mouse, was delivered sub-cutaneously via an implantable osmotic pump. Mice were exposed to normoxia or chronic hypoxia for 21 days, at which point (A) RVSP, (B) Fulton's index, (C) pulmonary arterial % wall thickness (<150 μm diameter) and (D) hematocrit were measured. Values are means±SEM; *p<0.05 vs. normoxia vehicle #p<0.05 vs. normoxic SR1001, n=4-5/group, analyzed by 2-way ANOVA followed by multiple comparisons Student-Newman-Keuls test.
as §1
CD4+ T cells contribute to chronic hypoxia-induced pulmonary hypertension. To directly assess the contribution of T cells to CH-induced PH, recombination-activating gene 1 (RAG1) knockout mice, which lack the enzyme that plays a crucial role in the development of T and B cells were studied. Therefore, RAG1 KO mice lack mature T and B cells (Mombaerts et al., 1992). RAG1 KO mice were exposed to CH for 21 days or left in normoxia. […] RVSP was measured by direct cardiac puncture under isoflurane anesthesia (Bierer et al., 2011). The inventors also isolated CD4^+ or CD8+ cells from the lymph nodes of WT mice by negative selection using a magnetic bead cell isolation kit (Miltenyi Biotec). 2.5×10^5 cells were injected into RAG1 KO mice. After 2 weeks mice were exposed to CH or normoxia.

[3] = test system: perivascular T cells (CD3+); assay: Perivascular CD3+ T cells in lung sections of mice exposed to chronic hypoxia (immunohistochemistry); type: in vivo; details: WT mice, CH for 2, 5 or 21 days; SR1001 0.625 mg/day for 25 g mouse s.c.; vs vehicle
Protocol: FIGS. 5A-D—Inhibition of TH17 cell development decreases CH-induced increases in perivascular T cells. Following treatment, lungs sections were stained with an anti-CD3 antibody to allow quantification of CD3+ T cells in the perivascular region of the lungs. The RORyt specific inhibitor, SR1001 was delivered daily by sub-cutaneous injection (0.625 mg/day for 25 g mouse) for the length of normoxic or CH exposure. (A) Perivascular CD3+ cells from mice exposed to 2 days, (B) 5 days or (C) 21 days of normoxia or CH. (D) Representative images of lung sections from mice exposed to CH with or without SR1001. Values are means±SEM, *p<0.05 vs. normoxia vehicle. n=3-4/group, 5-15 arteries<150 μm outer circumference, per mouse, analyzed by 2-way ANOVA followed by multiple comparisons Student-Newman-Keuls test.
Methods: Age- and sex-matched mice C57BL/6J wild-type (WT), RAG1 KO mice (lack mature T and B cells), IL-17-GFP mice (express EGFP in cells expressing IL-17A), were used in these studies (The Jackson Laboratory). Mice were exposed to chronic hypoxia (CH) for 2 to 21 days in a hypobaric chamber maintained at a barometric pressure of 380 mmHg. Normoxic animals were housed in identical cages in the same facility under normobaric conditions (PB=630 mmHg in Albuquerque, N. Mex.). […]

[4] = 3 weeks CH then SR1001 for additional 2 weeks in CH

For `CC(=O)Nc1nc(C)c(S(=O)(=O)Nc2ccc(C(O)(C(F)(F)F)C(F)(F)F)cc2)s1` [SR1001, N-(5-(N-(4-(1,1,1,3,3,3-hexafluoro-2-hydroxypropan-2-yl)phenyl)sulfamoyl)-4-methylthiazol-2-yl)acetamide], the “TH17 cell development in vivo” value (TH17 cell development [1]) is listed as “inhibits TH17 cell development”, the “TH17 cell development in vitro” value (TH17 cell development [2]) is listed as “inhibits TH17 cell development” and the “already elevated RVSP” value (established PH due to CH; 3 weeks CH then SR1001 (0.625 mg/day for 25 g mouse, s.c. osmotic pump) for additional 2 weeks in CH) is listed as “significantly decreased”. The “perivascular T cells in the lungs” value (established PH due to CH; [4]) was “significant decrease”, the pulmonary arterial remodeling (established PH due to CH; [4]) was “no effect” and the “RV remodeling (Fulton's index)” value (established PH due to CH; 3 weeks CH then SR1001 for additional 2 weeks in CH, p<0.0583) was “strong trend for a decrease”. The “activity of nuclear receptor RORγt” value (RORγt) was “inhibits the activity”, the “activity of nuclear receptor RORα” value (RORα) was “inhibits the activity” and the “CH-induced increase in RV remodeling (Fulton's index)” value (CH-induced PH) was “attenuated”. For the same compound, the “CH-induced increase in RVSP” value (CH-induced PH) was “attenuated”, the “CH-induced increase in pulmonary arterial remodeling (% wall thickness)” value (CH-induced PH) was “attenuated” and the “perivascular T cells (CD3+) in the pulmonary arterial perivascular region” value [3] was “significant reduction”.
